As usually defined, the EC50 is the concentration that produces a half-maximal response. Usually CC50 stands for the concentration that lowers cell viability or growth by half.

Where only a bound is given, the exact number is not on record here.

Data set [1] deals with intracellular amastigotes of L. donovani (strain MHOM/ET/67/HU3). In words: L. donovani intracellular amastigotes in THP-1-derived macrophages, resazurin method. Format: cell-based. The following applies: for SI selectivity index (EC50 THP-1/EC50 parasite (amastigote form)): THP-1 vs L. donovani amastigotes. How it is done:
(§1) Furthermore, their cytotoxicity on human THP-1 cells was evaluated and the selectivity index (SI) of each compound was calculated (Table 1).
Background: The colour change of resazurin is a common sign of viable cells or microbes.

The test system of data set [2] is T. b. brucei wild strain s427. In words: T. b. brucei s427 bloodstream trypomastigotes, Alamar blue. It is filed as cell-based.
The subject of data set [3] is T. b. brucei drug-resistant strain B48. It is filed as cell-based. The conditions noted are these: for RF resistance factor (EC50 T. b. B48/EC50 T. b. s427): value in parentheses.
Data set [4] relates to HEK cells. Description: Cytotoxicity on HEK cells. The conditions noted are these: read-out: CC50 HEK; concentration that causes 50% cell death.
Data set [5] can be described thus: Cytotoxicity on THP-1 cells. The conditions noted are these: human. How it is done: as §1
The nature of data set [6]: Cytotoxicity on L929 cells. Format: cell-based. The conditions noted are these: mouse.
Data set [7] has as its system epimastigotes of T. cruzi (CL strain lacZ). Description: microbe, parasite or virus in culture. Format: cell-based. The following applies: Trypanosoma cruzi.
A short description of data set [8]: Microsomal stability, mouse liver microsomes. The conditions noted are these: reaction time up to 120 min. Background: Microsomes from liver hold many membrane-bound enzymes, among them those of drug oxidation.
Data set [9] in a line: Microsomal stability, human liver microsomes, phase I. The following applies: reaction time up to 120 min.

Take `C[C@@H]1[C@H](O)[C@@H](C)/C=C/C=C/C=C/C=C/C=C/C=C/C=C/[C@H](O[C@@H]2O[C@H](C)[C@@H](O)[C@H](N)[C@@H]2O)C[C@@H]2O[C@](O)(C[C@@H](O)C[C@@H](O)[C@H](O)CC[C@@H](O)C[C@@H](O)CC(=O)O[C@H]1C)C[C@H](O)[C@H]2C(=O)O` [AmB, Amphotericin B]: the “SI selectivity index (EC50 THP-1/EC50 parasite (amastigote form))” value in data set [1] stood at 116.0.

In the case of `O=C(Nc1ccc(N=c2[nH]c3ccccc3[nH]2)c(Cl)c1)c1ccc(N=c2[nH]c3ccccc3[nH]2)cc1Cl` [Compound 1f, 4-((1H-benzo[d]imidazol-2(3H)-ylidene)amino)-N-(4-((1H-benzo[d]imidazol-2(3H)-ylidene)amino)-3-chlorophenyl)-2-clorobenzamide], in data set [2] (HEK vs T. brucei), the SI was found to be 3.9. For the same compound, the EC50 turned out to be 2.64 ± 0.09 µM in [2] (strain s427 of T. b. brucei); 2.93 ± 0.17 µM in data set [3] (strain B48 resistant to pentamidine and diminazene). Further, in data set [3], the “RF resistance factor (EC50 T. b. B48/EC50 T. b. s427)” value (“RF resistance factor” below) was “(1.11)”. For the same compound, in data set [4], the cytotoxic concentration (CC50) came to 10.2 ± 0.3 µM.

In the case of `c1ccc2[nH]c(=Nc3ccc(CCc4ccc(N=c5[nH]c6ccccc6[nH]5)cc4)cc3)[nH]c2c1` [Compound 13, 4,4′-(ethane-1,2-diyl)bis(N-(1H-benzo[d]imidazol-2(3H)-ylidene)aniline)], the EC50 in data set [1] (Leishmania donovani, Macrophage, read-out: EC50 L. donovani intracellular amastigotes) is more than 10 µM.

In [5], `N=C(Nc1ccc(CCc2ccc(NC(=N)c3ccccn3)cc2)cc1)c1ccccn1` [Compound 17, N,N″-(ethane-1,2-diylbis(4,1-phenylene))dipicolinimidamide] yielded an EC50 of more than 50 µM. Further, the EC50 at 72 h in data set [6] was more than 200 µM.

In the case of `CCCCCCCCCCCCCCCCOP(=O)([O-])OCC[N+](C)(C)C` [MIL, Miltefosine], the “SI selectivity index (EC50 THP-1/EC50 parasite (amastigote form))” value in data set [1] was found to be 28.8.

In turn, `O=C(Cn1ccnc1[N+](=O)[O-])NCc1ccccc1` [benzn, benznidazole] yielded a concentration giving a half-maximal response (EC50) in [7] of 25.3 ± 2.1 µM. In data set [6], the EC50 at 72 h is more than 200 µM.

With `O=C(O)Cc1ccccc1Nc1c(Cl)cccc1Cl` [diclofenac], the “metabolism by mouse liver microsomes (CD-1), in words” value in data set [8] is “slowly metabolised”. Besides, the “metabolism by human liver microsomes, in words” value in data set [9] is given as “rapidly metabolised (high intrinsic clearance)”.

Consider `N=C(N)c1ccc(/N=N/Nc2ccc(C(=N)N)cc2)cc1` [dimin., Diminazene], for which the “RF resistance factor” value in data set [3] is recorded as “(13.1)”.

For the compound `N=C(N)c1ccc(OCCCCCOc2ccc(C(=N)N)cc2)cc1` [pent., Pentamidine], in data set [3], the “RF resistance factor” value is on record as “(168)”.
